From patent publication US7408026B1, “Synthesis of proteins by native chemical ligation” (The Scripps Research Institute, priority 1998, dated 2008) come the findings set out here.

In this assay the test system is neutrophil elastase release. In words: assay for neutrophil elastase release (titration). Type of assay: cell-based. The note with it: compared with conventionally synthesized molecule and native sequence IL-8. The source says:
Application of the native chemical ligation method to the total synthesis of a protein molecule was illustrated by the preparation of human interleukin 8 (IL-8). (M. Baggiolini, et al., FEBS Lett. (1989): vol. 307, p 97; I. Clark-Lewis, et al., J. Biol. Chem. (1994): vol. 269, p 16075 (1994); I. Clark-Lewis, Biochemistry (1991): vol. 30, p 3128; and K. Rajarathnam, et al., (1994): Biochemistry, (1994): vol. 29, p 1689.) The 72 amino acid polypeptide chain contains four Cys residues, which form two functionally critical disulfide bridges in the native protein molecule. The two unprotected synthetic peptide segments reacted cleanly to give the full length polypeptide chain in reduced form without further chemical manipulation (9). This successful ligation was particularly significant because the 33- and 39-residue IL-8 segments each contained two Cys residues, and together encompassed 18 of the 20 genetically encoded amino acids found in proteins. The purified product was folded and oxidized as previously described, to give IL-8 with a mass precisely 4 daltons less than that of the original ligation product, indicating the formation of two disulfide bonds. The properties of this folded product were identical to those of previously studied authentic IL-8 samples.

On to “corresponding molecule obtained by conventional synthesis: [Ala33]IL-8 obtained by conventional synthesis, used as comparator”, for which the “maximal response in neutrophil elastase release” value was “indistinguishable and identical to native sequence IL-8”. For “[Ala33]IL-8: 72 amino acid human interleukin 8 analogue made by native chemical ligation of IL-8(1-33)αCOSBn and IL-8(34-72), then folded by air oxidation” the value was “indistinguishable and identical to native sequence IL-8”.
